Measurements: US6521407B1, “Methods for determining chemosensitivity of cancer cells based upon expression of negative and positive signal transduction factors” (TheRyte Limited, priority 1998, dated 2003)

Legend:
Format in all cases: cell-based, human
[1] = tested on: A431; assay: Clonogenic cell survival assay (D0.1), A431; details: A431, p53 mutant, undetectable p21; for Absolute D0.1: dose reducing clonogenic survival to 10% of control, 14 days exposure
Experimental: (§1) The growth characteristics clonogenic assay procedures of the 11 human in vitro cell lines used in this analysis have already been reported e.g. in Britten R. A. and Warenius H., Eur. J. Canc. 29A, 1315-1320 (1993). The cell lines are listed, with their histological classification in Table 4. All are well established; many having been growing in vitro for several years. Cell lines were either donations or purchased by our laboratories. On receipt all were grown for 5 passages to provide sufficient cells for batch storage in liquid nitrogen. During this period contamination was excluded by at least one passage in antibiotic free medium and mycoplasma testing was carried out on all lines. For clonogenic assays, cells were taken from a designated primary liquid nitrogen batch and grown for 3-6 passages until there were sufficient well-growing cells. Further batches from these cells were frozen in liquid nitrogen. Cells were routinely maintained in DMEM medium. All lines were supplemented with 10% heat-inactivated foetal calf serum (HIFCS). […] The D0.1 values were obtained by several independent clonogenic assays and the data fitted by linear regression analysis. The clonogenic assays were repeated until statistically satisfactory fits were achieved on linear regression. The D0.1 values were obtained by interpolation of the linear regression lines. The cytotoxic drug D0.1 values have been normalised and expressed as relative D0.1 values, to enable the relative sensitivity of each cell to each of the drugs to be compared.
(§2) In order to assay CDDP sensitivity 10^2-10^5 cells were plated in 3 ml of Ham's F12 medium supplemented with 10% FCS in 6 well plates and incubated at 37° C. in an atmosphere of 5% CO2 for 8 hours. […] The medium was then removed, the cells were fixed in 70% ethanol and stained with 10% Giemsa and colonies of >100 cells counted. […] CDDP cell survival was determined at the 10% clonogenic cell survival level (D0.1) by interpolation of the fitted regression curve. […]

[2] = tested on: HT29; assay: Clonogenic cell survival assay (D0.1), HT29; details: HT29, p53 mutant, undetectable p21; for Absolute D0.1: dose reducing clonogenic survival to 10% of control, 14 days exposure
Experimental: as §1, §2

[3] = tested on: MOR; assay: Clonogenic cell survival assay (D0.1), MOR; details: p53 mutant
Experimental: (§3) The growth characteristics clonogenic assay procedures of the 11 human in vitro cell lines used in this analysis have already been reported e.g. in Britten R. A. and Warenius H., Eur. J. Canc. 29A, 1315-1320 (1993). The cell lines are listed, with their histological classification in Table 4. All are well established; many having been growing in vitro for several years. Cell lines were either donations or purchased by our laboratories. On receipt all were grown for 5 passages to provide sufficient cells for batch storage in liquid nitrogen. During this period contamination was excluded by at least one passage in antibiotic free medium and mycoplasma testing was carried out on all lines. For clonogenic assays, cells were taken from a designated primary liquid nitrogen batch and grown for 3-6 passages until there were sufficient well-growing cells. Further batches from these cells were frozen in liquid nitrogen. Cells were routinely maintained in DMEM medium. All lines were supplemented with 10% heat-inactivated foetal calf serum (HIFCS). […]
(§4) In order to assay CDDP sensitivity 10^2-10^5 cells were plated in 3 ml of Ham's F12 medium supplemented with 10% FCS in 6 well plates and incubated at 37° C. in an atmosphere of 5% CO2 for 8 hours. […] The medium was then removed, the cells were fixed in 70% ethanol and stained with 10% Giemsa and colonies of >100 cells counted.

[4] = tested on: RT112; assay: Clonogenic cell survival assay (D0.1), RT112; details: RT112, p53 mutant, undetectable p21; for Absolute D0.1: dose reducing clonogenic survival to 10% of control, 14 days exposure
Experimental: as §1, §2

[5] = tested on: MEL2; assay: Clonogenic cell survival assay (D0.1), MEL2; details: MEL2, p53 mutant, undetectable p21; for Absolute D0.1: dose reducing clonogenic survival to 10% of control, 14 days exposure
Experimental: as §1, §2

[6] = tested on: 2780; assay: Clonogenic cell survival assay (D0.1), 2780; details: 2780, p53 wild-type, detectable p21; for Absolute D0.1: dose reducing clonogenic survival to 10% of control, 14 days exposure
Experimental: as §1, §2

[7] = tested on: I407; assay: Clonogenic cell survival assay (D0.1), I407; details: 1407 (I407), p53 wild-type, detectable p21; for Absolute D0.1: dose reducing clonogenic survival to 10% of control, 14 days exposure
Experimental: as §1, §2

[8] = tested on: HRT18; assay: Clonogenic cell survival assay (D0.1), HRT18; details: HRT18, p53 wild-type, detectable p21; for Absolute D0.1: dose reducing clonogenic survival to 10% of control, 14 days exposure
Experimental: as §1, §2

[9] = tested on: MGHU1; assay: Clonogenic cell survival assay (D0.1), MGHU1; details: MGHU1, p53 wild-type, detectable p21; for Absolute D0.1: dose reducing clonogenic survival to 10% of control, 14 days exposure
Experimental: as §1, §2

[10] = tested on: CORL23; assay: Clonogenic cell survival assay (D0.1), CORL23; details: CORL23, p53 wild-type, detectable p21; for Absolute D0.1: dose reducing clonogenic survival to 10% of control, 14 days exposure
Experimental: as §1, §2

[11] = tested on: OAW42; assay: Clonogenic cell survival assay (D0.1), OAW42; details: OAW42, p53 wild-type, detectable p21
Experimental: as §3, §4

[12] = absolute D0.1 divided by mean D0.1 of the drug

SMILES	Absolute D0.1 [1]	Absolute D0.1 [2]	Absolute D0.1 [4]	Absolute D0.1 [5]	Absolute D0.1 [6]	Absolute D0.1 [7]	Absolute D0.1 [8]	Absolute D0.1 [9]	Absolute D0.1 [10]	also measured
N.N.[Cl][Pt][Cl] [CDDP, cis-diamminedichloroplatinum]	0.306	0.632	0.237	0.457	0.255	0.06	0.864	0.4494	0.338	Relative D0.1 [1, 12]: 0.765; Relative D0.1 [2, 12]: 1.58; Relative D0.1 ([3]; undetectable p21, absolute D0.1 divided by mean D0.1 of the drug): 1.573; Absolute D0.1 ([3]; undetectable p21, dose reducing clonogenic survival to 10% of control, 14 days exposure): 0.629; Relative D0.1 [4, 12]: 0.593; Relative D0.1 [5, 12]: 1.143; Relative D0.1 [6, 12]: 0.637; Relative D0.1 [7, 12]: 0.15; Relative D0.1 [8, 12]: 2.16; Relative D0.1 [9, 12]: 1.235; Relative D0.1 [10, 12]: 0.845; Relative D0.1 [11, 12]: 0.27; Absolute D0.1 ([11]; dose reducing clonogenic survival to 10% of control, 14 days exposure): 0.108
CC(=O)O[C@H]1C(=O)[C@@]2(C)[C@H]([C@H](OC(=O)c3ccccc3)[C@]3(O)C[C@H](OC(=O)[C@H](O)[C@@H](NC(=O)c4ccccc4)c4ccccc4)C(C)=C1C3(C)C)[C@]1(OC(C)=O)CO[C@@H]1C[C@@H]2O [Paclitaxel (TAXOL), Paclitaxel]	0.823	1.106	1.523	0.57	2.113	1.504	10.415	1.144	0.497	–
